These results are taken from PMC4995014, “Identification of ABC Transporter Interaction of a Novel Cyanoquinoline Radiotracer and Implications for Tumour Imaging by Positron Emission Tomography” (PLoS ONE, 2016).

SMILES strings stand for the structures. A value given as a limit tells only on which side of the number the result lay.

Assay [1] has as its target T1, EGFR Del E746-A750 (PC9 cells) (Homo sapiens, UniProt P00533, DEL746-750).
T1 construct: endogenous in cells; host or cells: PC9 (Dr Olivier Pardo, Imperial College London)
As to the kind of experiment: Inhibition of EGFR autophosphorylation (p-EGFR Y1068, western blot) in PC9 cells. The following applies: 3 h incubation, densitometry of western blots. The format is cell-based. As for the experimental part: (§1) Affinity of the cyanoquinolines for EGFR was established by measuring their inhibition of EGFR autophosphorylation via western blot. Cells were seeded in 6 well plates and following 24 h of growth, were subject to overnight serum starvation. The cells were then treated with increasing concentrations of cyanoquinolines prepared in serum free growth media from a DMSO stock (final DMSO concentration < 1%) for 3 h at 37°C, and stimulated for receptor autophosphorylation by addition of 100 ng/mL of EGF during the last 15 minutes of drug incubation. After 3 h the cells were placed on ice, media removed and then the cells were washed two times with ice cold phosphate buffered saline (PBS). Lysates were analysed by western blot to measure changes to p-EGFR Y1068.
(§2) Cells were collected into a microcentrifuge tube and sonicated for 30 seconds on ice. Cellular protein levels were assessed using a bicinchoninic acid (BCA) protein assay kit according to the manufacturer’s instructions (Thermo scientific). […] Samples were transferred to polyvinylidene difluoride (PVDF) membrane using Trans-Blot Turbo system BIO-RAD (Hercules, California, USA). […] The membranes were then incubated overnight with primary antibody prepared in 1% milk or 1% BSA in TBST. […] Membranes were washed a further three times for 10 minutes with TBST. […]
For orientation: Immunoblotting shows a protein as a band on a membrane.

For assay [2], the target named is T2, wildtype EGFR (A549 cells) (Homo sapiens, UniProt P00533).
T2 construct: host or cells: A549
T2 sequence (P00533 25-1210): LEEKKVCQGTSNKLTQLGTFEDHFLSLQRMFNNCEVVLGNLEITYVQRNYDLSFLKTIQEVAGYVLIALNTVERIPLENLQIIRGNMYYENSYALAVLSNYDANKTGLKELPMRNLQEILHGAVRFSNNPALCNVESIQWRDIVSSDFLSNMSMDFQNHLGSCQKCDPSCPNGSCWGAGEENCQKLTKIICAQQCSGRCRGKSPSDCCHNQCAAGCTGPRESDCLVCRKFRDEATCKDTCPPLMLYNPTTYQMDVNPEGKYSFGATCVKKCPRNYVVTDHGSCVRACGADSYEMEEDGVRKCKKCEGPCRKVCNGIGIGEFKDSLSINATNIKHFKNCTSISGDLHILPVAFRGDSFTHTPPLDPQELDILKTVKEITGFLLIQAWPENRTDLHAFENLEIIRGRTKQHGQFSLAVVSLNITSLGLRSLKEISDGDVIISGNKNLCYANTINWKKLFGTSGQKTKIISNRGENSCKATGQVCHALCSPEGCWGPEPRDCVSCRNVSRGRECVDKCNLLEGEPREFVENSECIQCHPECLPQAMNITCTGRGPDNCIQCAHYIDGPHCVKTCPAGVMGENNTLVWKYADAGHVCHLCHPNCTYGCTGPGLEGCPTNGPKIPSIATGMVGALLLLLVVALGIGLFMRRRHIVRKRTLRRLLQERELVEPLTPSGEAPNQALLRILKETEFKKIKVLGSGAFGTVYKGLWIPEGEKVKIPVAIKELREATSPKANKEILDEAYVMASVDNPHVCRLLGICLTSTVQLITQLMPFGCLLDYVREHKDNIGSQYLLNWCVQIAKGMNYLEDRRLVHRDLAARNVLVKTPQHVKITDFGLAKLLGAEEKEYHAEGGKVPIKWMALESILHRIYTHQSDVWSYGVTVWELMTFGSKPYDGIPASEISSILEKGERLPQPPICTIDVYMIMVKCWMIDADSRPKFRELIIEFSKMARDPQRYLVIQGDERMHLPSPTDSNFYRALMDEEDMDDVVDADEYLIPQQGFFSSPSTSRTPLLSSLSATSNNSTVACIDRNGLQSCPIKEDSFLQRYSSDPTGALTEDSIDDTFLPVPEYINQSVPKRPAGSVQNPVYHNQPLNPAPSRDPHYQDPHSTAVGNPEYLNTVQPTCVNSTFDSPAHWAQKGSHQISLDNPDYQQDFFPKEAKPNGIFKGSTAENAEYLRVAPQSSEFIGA
Description: Inhibition of EGFR autophosphorylation (p-EGFR Y1068, western blot) in A549 cells. The format is cell-based. The following applies: 3 h incubation, EGF stimulated. As for the experimental part:
as §1
(§3) Cell lysates were prepared by addition of radioimmunoprecipitation assay (RIPA) buffer (50mM Tris-HCl pH 7.2, 150mM NaCl, 1% NP40, 1% sodium deoxycholate, 0.1% sodium dodecyl sulfate) supplemented with 1 x protease and phosphatase inhibitor cocktail (1mM 4-(2-Aminoethyl)benzenesulfonylfluoride hydrochloride, 800 nM aprotinin, 50 μM bestatin, 15 μM E-64, 5μM EDTA, 20 μM leupeptin, 10 μM pepstatin A; Thermo scientific, Waltham, Massachusetts, USA). […] Cellular protein levels were assessed using a bicinchoninic acid (BCA) protein assay kit according to the manufacturer’s instructions (Thermo scientific). […]

Another assay has as its target T3, EGFR L858R (H3255 cells) (Homo sapiens, UniProt P00533, L858R).
T3 construct: host or cells: H3255
Description: Inhibition of EGFR autophosphorylation (p-EGFR Y1068, western blot) in H3255 cells. The following applies: 3 h incubation, EGF stimulated. The class given is cell-based. As for the experimental part: as §1, §2

Assay [3] addresses T4, wildtype EGFR (H358 cells) (Homo sapiens, UniProt P00533).
T4 construct: host or cells: H358
As to the kind of experiment: Inhibition of EGFR autophosphorylation (p-EGFR Y1068, western blot) in H358 cells. The class given is cell-based. The following applies: 3 h incubation, EGF stimulated. As for the experimental part: as §1, §3

A further assay has as its system MCF7 cells. Description: SRB cell viability assay in MCF7 cells. The following applies: Homo sapiens, 72 h. The format is cell-based. As for the experimental part: (§4) Cell viability by the sulforhodamine B (SRB) assay was used to assess cell growth and cytotoxicity of test compounds [29]. Cells were seeded at densities of 3,500 to 5,000 cells per well in 96 well plates overnight and pre-treated for 1 h with ABC transporter modulators: 10 μM fumitremorgin C (FTC; in MCF7MX and MCF7 cells), or 0.3 μM of zosuquidar (in 3T3 and 3T3-MDR1). Cells were then treated with test compounds for 72 h, at 37°C. After drug treatment, cells were fixed by addition of 50% trichloroacetic acid (TCA), and the plates washed and dried to allow staining with 0.4% solution of sulforhodamine B (Sigma) in 1% acetic acid for 30 minutes. Excess dye was removed upon washing with 1% acetic acid. Plates were dried and bound protein was solubilised upon addition of 150 μL of 10 mM Tris base buffer. Absorbance was measured at 540 nm using Thermo Multiskan-Ex plate reader. Cell viability versus compound concentration curves were plotted as a percentage of control cells. The concentration of drug that gave 50% inhibition in cell growth (GI50) was extrapolated from these curves using the sigmoid curve fit with variable slope in Prism (GraphPad Prism version 5.01, GraphPad Software, San Diego California USA). Three to six replicate wells were used for each drug concentration and experiments were carried out on three separate occasions for each compound.

The test system of another assay is MCF7MX cells. Description: SRB cell viability assay in MCF7MX cells (ABCG2 overexpressing). The format is cell-based, human. The following applies: for GI50: Homo sapiens, MCF7/MX, 72 h, SRB. As for the experimental part:
as §4

The next assay relates to 3T3 cells. Description: SRB cell viability assay in 3T3 cells. The format is cell-based. The following applies: Mus musculus, NIH3T3, 72 h. As for the experimental part:
as §4

Assay [4] has as its target T5, EGFR L858R/T790M (H1975 cells) (Homo sapiens, UniProt P00533, L858R/T790M).
T5 construct: host or cells: H1975
Description: Inhibition of EGFR autophosphorylation (p-EGFR Y1068, western blot) in H1975 cells. The following applies: 3 h incubation, EGF stimulated. The class given is cell-based. As for the experimental part:
as §1, §2

A further assay has as its system active mutant EGFR. Description: Inhibition of EGFR autophosphorylation in active mutant EGFR expressing cell lines (H1650, PC9, H3255). The class given is cell-based. The following applies: H1650 (del 746–750), PC9 (del 746–750) and H3255 (L858R) cells; read-out: IC50 p-EGFR Y1068 in active mutant EGFR expressing cell lines. As for the experimental part:
as §1, §3

The mark [5] stands for this setting: 1 h pre-treatment with 10 μM FTC.

T3 sequence (P00533 25-1210 L858R): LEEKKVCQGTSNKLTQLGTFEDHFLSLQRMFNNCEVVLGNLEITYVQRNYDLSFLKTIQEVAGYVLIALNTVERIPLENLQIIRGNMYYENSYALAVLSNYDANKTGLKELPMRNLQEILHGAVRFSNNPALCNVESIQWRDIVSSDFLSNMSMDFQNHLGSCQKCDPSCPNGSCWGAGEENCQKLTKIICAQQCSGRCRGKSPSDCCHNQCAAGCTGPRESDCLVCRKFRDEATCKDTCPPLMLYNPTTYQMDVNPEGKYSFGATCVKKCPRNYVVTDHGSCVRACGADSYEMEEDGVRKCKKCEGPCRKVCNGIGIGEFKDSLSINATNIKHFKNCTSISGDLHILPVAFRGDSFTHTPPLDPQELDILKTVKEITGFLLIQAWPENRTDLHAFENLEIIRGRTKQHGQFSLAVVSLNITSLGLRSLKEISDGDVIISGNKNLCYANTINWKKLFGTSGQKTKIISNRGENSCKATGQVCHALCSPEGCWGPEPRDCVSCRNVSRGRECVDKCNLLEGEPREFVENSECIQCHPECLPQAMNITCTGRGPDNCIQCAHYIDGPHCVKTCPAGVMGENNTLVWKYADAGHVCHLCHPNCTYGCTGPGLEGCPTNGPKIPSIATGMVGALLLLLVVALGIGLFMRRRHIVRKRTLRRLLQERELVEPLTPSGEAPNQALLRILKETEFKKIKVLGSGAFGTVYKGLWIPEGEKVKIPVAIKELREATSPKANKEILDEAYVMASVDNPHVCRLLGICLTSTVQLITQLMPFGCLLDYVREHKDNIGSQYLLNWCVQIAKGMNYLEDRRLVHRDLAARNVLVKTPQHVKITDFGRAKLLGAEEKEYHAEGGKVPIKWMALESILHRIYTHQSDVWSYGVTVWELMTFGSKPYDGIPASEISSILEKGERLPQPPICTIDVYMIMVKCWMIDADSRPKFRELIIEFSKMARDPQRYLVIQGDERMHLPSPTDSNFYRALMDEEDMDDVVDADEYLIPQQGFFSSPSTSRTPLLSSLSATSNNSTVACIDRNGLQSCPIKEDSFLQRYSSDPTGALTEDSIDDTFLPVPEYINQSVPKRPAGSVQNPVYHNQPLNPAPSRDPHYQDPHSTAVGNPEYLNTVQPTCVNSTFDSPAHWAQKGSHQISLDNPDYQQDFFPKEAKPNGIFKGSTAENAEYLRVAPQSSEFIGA
T5 sequence (P00533 25-1210 T790M/L858R): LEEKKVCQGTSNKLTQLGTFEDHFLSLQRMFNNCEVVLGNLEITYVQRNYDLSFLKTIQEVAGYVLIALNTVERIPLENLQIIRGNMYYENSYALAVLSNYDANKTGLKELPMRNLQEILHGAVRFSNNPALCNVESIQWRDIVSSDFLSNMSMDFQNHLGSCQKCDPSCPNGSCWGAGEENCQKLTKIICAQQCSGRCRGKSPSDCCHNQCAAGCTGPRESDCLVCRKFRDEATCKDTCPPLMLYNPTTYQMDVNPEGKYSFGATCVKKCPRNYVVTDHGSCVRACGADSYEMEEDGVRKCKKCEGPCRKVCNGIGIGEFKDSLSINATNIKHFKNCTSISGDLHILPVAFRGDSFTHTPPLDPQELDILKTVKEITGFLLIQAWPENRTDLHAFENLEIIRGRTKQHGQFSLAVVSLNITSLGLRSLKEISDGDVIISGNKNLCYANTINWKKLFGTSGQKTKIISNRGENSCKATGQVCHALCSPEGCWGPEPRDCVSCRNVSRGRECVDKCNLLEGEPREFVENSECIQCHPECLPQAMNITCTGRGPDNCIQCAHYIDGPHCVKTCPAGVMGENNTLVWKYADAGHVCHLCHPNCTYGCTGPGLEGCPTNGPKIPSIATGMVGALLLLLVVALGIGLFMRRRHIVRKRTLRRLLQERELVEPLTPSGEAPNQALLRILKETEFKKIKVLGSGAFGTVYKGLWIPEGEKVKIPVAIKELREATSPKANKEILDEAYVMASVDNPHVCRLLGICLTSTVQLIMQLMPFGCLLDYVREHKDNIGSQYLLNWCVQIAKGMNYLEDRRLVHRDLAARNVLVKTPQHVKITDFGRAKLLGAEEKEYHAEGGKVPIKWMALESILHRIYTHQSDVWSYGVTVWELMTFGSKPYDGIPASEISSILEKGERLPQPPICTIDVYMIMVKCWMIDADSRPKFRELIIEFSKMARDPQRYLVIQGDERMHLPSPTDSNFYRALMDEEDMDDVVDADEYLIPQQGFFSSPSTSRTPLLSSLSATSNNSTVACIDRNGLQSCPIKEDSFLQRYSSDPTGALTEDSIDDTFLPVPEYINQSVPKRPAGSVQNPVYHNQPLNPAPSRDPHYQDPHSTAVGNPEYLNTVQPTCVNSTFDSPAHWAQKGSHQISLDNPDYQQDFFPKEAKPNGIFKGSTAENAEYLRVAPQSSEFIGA
T4 sequence (P00533 25-1210): as the sequence (P00533 25-1210) above

On to `CCOc1cc2ncc(C#N)c(Nc3ccc(F)c(Cl)c3)c2cc1NC(=O)/C=C/CNCc1cn(CCF)nn1` [FED6, (2E)-N-{4-[(3-chloro-4-fluorophenyl)amino]-3-cyano-7-ethoxyquinolin-6-yl}-4-({[1-(2-fluoroethyl)-1H-1,2,3-triazol-4-yl]methyl}amino)-but-2-enamide], for which the IC50 – broadly, the midpoint of a concentration-inhibition curve – in [1] was 0.022 µM; in assay [2] it was 0.7 µM; on EGFR L858R (H3255 cells) it was 0.008 µM; in assay [3], 0.6 µM; in [4] it was greater than 1 µM; with active mutant EGFR, 0.008 to 0.04 µM. In addition, the GI50 (as a rule, the concentration at which growth is held to half of that of the control) in the assay with MCF7 cells (setting [5]) is 12.3 ± 7.1 µM; with MCF7 cells (without FTC) it was 12 ± 6.93 µM; with MCF7MX cells (setting [5]) it was 37.9 ± 21.9 µM; with MCF7MX cells (without FTC), 75.9 ± 43.8 µM; in the assay with 3T3 cells (pre-treatment with 0.3 μM zosuquidar), 7.8 ± 0.7 µM; in the assay on 3T3 cells (without zosuquidar), 10.7 ± 1 µM. The “fold increase in GI50 in the ABCG2 overexpressing cell line” value with MCF7MX cells (GI50 MCF7MX over GI50 MCF7, without FTC) is on record as 6.3 fold.
